Assay results from ChEMBL document CHEMBL3351937, “Potential C-terminal-domain inhibitors of heat shock protein 90 derived from a C-terminal peptide helix” (Bioorg Med Chem, 2014).
The source made the active and inactive calls. The calls are words filed in the database; no cut-off is given here. Bridge positions count the residues as written; N and C are the ends. Square brackets hold non-standard residues; d marks the D form. Peptide text beside a SMILES is read from it. * marks the point of attachment. 5FAM = O=C1OC2(c3ccc(O)cc3Oc3cc(O)ccc32)c2ccc(C(=O)*)cc21; S5 = C=CCCC[C@](C)(N)C(=O)O

Columns and labels:
[1] = biological target: T1, Heat shock protein HSP 90 (Oryctolagus cuniculus) (UniProt P11500); experiment: Inhibition of HSP90 in rabbit reticulocyte lysate at 250 uM after 90 mins by luciferase renaturation assay
T1 sequence (whole entry): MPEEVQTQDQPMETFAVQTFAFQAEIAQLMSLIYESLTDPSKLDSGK

[2] = biological target: T2, Heat shock protein HSP 90-beta (Homo sapiens, UniProt P08238); experiment: Inhibition of HSP90 in human MDA-kb2 cells assessed as reduction in glucocorticoid receptor-dependent luciferase expression after 18 hrs by firefly luciferase reporter gene assay; assay type: cell-based
[3] = Cytotoxicity against human MDA-kb2 cells assessed as reduction in cell viability after 18 hrs by Promega cell titer-Glo assay; assay type: functional; conditions: MDA-kb2, 18 h, read-out: LC50 (the source's name)
[4] = Solubility in phosphate buffer; assay type: physicochemical
MDA-kb2 = experiment: Induction of plasma membrane disruption in human MDA-kb2 cells; assay type: functional, cell-based
[5] = biological target: T3, Heat shock protein HSP 90 (Oryctolagus cuniculus, UniProt P11500); experiment: Inhibition of HSP90 in rabbit reticulocyte lysate after 90 mins by luciferase renaturation assay
T3 sequence (P11500 whole entry): T1 sequence (whole entry)

[6] = biological target: T2, Heat shock protein HSP 90-beta; experiment: Binding affinity to human HSP90 using FITC-labeled compound at 1 nM by fluorescence polarization assay
[7] = biological target: T2, Heat shock protein HSP 90-beta; experiment: Binding affinity to human HSP90 using FAM-labeled compound by fluorescence polarization assay

T2 sequence (P08238 whole entry): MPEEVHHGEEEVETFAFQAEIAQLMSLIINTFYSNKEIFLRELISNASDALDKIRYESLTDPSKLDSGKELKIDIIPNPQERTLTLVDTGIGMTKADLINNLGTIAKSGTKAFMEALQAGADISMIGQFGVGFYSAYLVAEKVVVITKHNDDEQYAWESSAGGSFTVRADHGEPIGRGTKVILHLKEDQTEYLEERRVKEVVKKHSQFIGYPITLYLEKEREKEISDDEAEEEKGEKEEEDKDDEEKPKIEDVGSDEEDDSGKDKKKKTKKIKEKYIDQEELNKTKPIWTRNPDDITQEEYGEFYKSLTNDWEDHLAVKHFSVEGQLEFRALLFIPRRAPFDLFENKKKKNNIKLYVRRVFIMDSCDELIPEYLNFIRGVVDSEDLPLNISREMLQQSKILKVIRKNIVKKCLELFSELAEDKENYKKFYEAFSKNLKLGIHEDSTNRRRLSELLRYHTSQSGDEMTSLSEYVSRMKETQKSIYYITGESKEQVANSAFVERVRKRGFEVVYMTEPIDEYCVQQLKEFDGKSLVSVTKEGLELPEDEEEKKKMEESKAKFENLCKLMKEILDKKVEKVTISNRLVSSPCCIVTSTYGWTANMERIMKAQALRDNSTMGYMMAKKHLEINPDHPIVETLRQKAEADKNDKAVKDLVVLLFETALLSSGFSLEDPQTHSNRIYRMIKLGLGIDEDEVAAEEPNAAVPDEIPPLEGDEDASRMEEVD

Q: For Ac-DPFTHANRIYRMIKLGLG-NH2, which inhibition [1] is on record?
A: Active

Q: With Ac-DPQTHANRIWRMIKLGLG-NH2 as the compound, how does the inhibition [1] read?
A: Active

Q: What does the source list for Ac-DPQTHANRIYRMIKLLLG-NH2?
A: inhibition [1]: Active; IC50 [2]: 18.6 µM; CC50 [3]: 22.9 µM; solubility [4]: ≥ 100 µM

Q: With Ac-DPQTHANRIYRMIKLWLG-NH2 as the compound, how does the CC50 [3] read?
A: 18.9 µM

Q: And the solubility [4]?
A: ≥ 100 µM

Q: And the Activity (MDA-kb2)?
A: Active

Q: Which IC50 [5] does the source give for `CC[C@H](C)[C@H](NC(=O)[C@H](CCCNC(=N)N)NC(=O)[C@H](CC(N)=O)NC(=O)[C@H](C)NC(=O)[C@H](Cc1cnc[nH]1)NC(=O)[C@@H](NC(=O)[C@H](CCC(N)=O)NC(=O)[C@@H]1CCCN1C(=O)[C@H](CC(=O)O)NC(C)=O)[C@@H](C)O)C(=O)N[C@@H](Cc1c[nH]c2ccccc12)C(=O)N[C@@H](CCCNC(=N)N)C(=O)N[C@@H](CCSC)C(=O)N[C@H](C(=O)N[C@H]1CCCCNC(=O)C[C@@H](C(N)=O)NC(=O)[C@H](CC(C)C)NC(=O)[C@H](Cc2c[nH]c3ccccc23)NC(=O)[C@H](CC(C)C)NC1=O)[C@@H](C)CC` (Ac-DPQTHANRIWRMIKLWLD-NH2; lactam 14-18) here?
A: 4.11 µM

Q: And the IC50 [2]?
A: 0.73 µM

Q: And the CC50 [3]?
A: 1.86 µM

Q: What about the solubility [4] of the same compound?
A: ≥ 100 µM

Q: What about the Activity (MDA-kb2) of the same compound?
A: Active

Q: With `COC1=C2C[C@@H](C)C[C@H](OC)[C@H](O)[C@@H](C)/C=C(\C)[C@H](OC(N)=O)[C@@H](OC)/C=C\C=C(/C)C(=O)NC(=CC1=O)C2=O` [GELDANAMYCIN] as the compound, how does the CC50 [3] read?
A: > 2 µM

Q: With Ac-DPQTHANRIYRLIKLGLG-NH2 as the compound, how does the inhibition [1] read?
A: Active

Q: What does the source list for Ac-DPQTHANRIYRMIKLGLG-NH2?
A: inhibition [1]: Active; IC50 [5]: 233 µM; IC50 [2]: > 160 µM; CC50 [3]: > 160 µM; solubility [4]: ≥ 100 µM

Q: Which inhibition [1] does the source give for Ac-DPQTHANRIYRMIKLGNG-NH2 here?
A: Active

Q: With `CC[C@H](C)[C@H](NC(=O)[C@H](CCCNC(=N)N)NC(=O)[C@H](CC(N)=O)NC(=O)[C@H](C)NC(=O)[C@H](Cc1cnc[nH]1)NC(=O)[C@@H](NC(=O)[C@H](CCC(N)=O)NC(=O)[C@@H]1CCCN1C(=O)[C@H](CC(=O)O)NC(C)=O)[C@@H](C)O)C(=O)N[C@@H](Cc1ccc(O)cc1)C(=O)N[C@@H](CCCNC(=N)N)C(=O)N[C@@H](CCSC)C(=O)N[C@H](C(=O)N[C@H]1CCCCNC(=O)C[C@@H](C(N)=O)NC(=O)[C@H](CC(C)C)NC(=O)[C@H](Cc2c[nH]c3ccccc23)NC(=O)[C@H](CC(C)C)NC1=O)[C@@H](C)CC` (Ac-DPQTHANRIYRMIKLWLD-NH2; lactam 14-18) as the compound, how does the IC50 [5] read?
A: 8.43 µM

Q: And the IC50 [2]?
A: > 27 µM

Q: And the CC50 [3]?
A: > 27 µM

Q: And the solubility [4]?
A: ≥ 100 µM

Q: Which IC50 [5] does the source give for `CO[C@H]1[C@H](OC(=O)c2ccc(C)[nH]2)[C@H](O)[C@@H](Oc2ccc3c(O)c(NC(=O)c4c[nH]c(C(=O)Nc5c(O)c6ccc(O[C@H]7OC(C)(C)[C@@H](OC)[C@H](OC(=O)c8ccc(C)[nH]8)[C@@H]7O)c(C)c6oc5=O)c4C)c(=O)oc3c2C)OC1(C)C` [COUMERMYCIN A1] here?
A: 28.1 µM

Q: What about the IC50 [2] of the same compound?
A: 15.3 µM

Q: And the CC50 [3]?
A: 19.1 µM

Q: For `CSCC[C@@H]1NC(=O)[C@H](CCCNC(=N)N)NC(=O)[C@H](Cc2ccc(O)cc2)NC(=O)[C@@H](NC(=O)[C@H](CCCNC(=N)N)NC(=O)[C@H](CC(N)=O)NC(=O)[C@H](C)NC(=O)[C@H](Cc2cnc[nH]2)NC(=O)[C@@H](NC(=O)[C@H](CCC(N)=O)NC(=O)[C@@H]2CCCN2C(=O)[C@H](CC(=O)O)NC(C)=O)[C@@H](C)O)CCCCNC(=O)C[C@@H](C(=O)N[C@@H](CCCCN)C(=O)N[C@@H](CC(C)C)C(=O)NCC(=O)N[C@@H](CC(C)C)C(=O)NCC(N)=O)NC1=O` (Ac-DPQTHANRKYRMDKLGLG-NH2; lactam 9-13), which IC50 [5] is on record?
A: 168 µM

Q: What about the IC50 [2] of the same compound?
A: > 120 µM

Q: And the CC50 [3]?
A: > 120 µM

Q: And the solubility [4]?
A: ≥ 100 µM

Q: With `C=CCCC[C@](C)(NC(=O)[C@H](CC(C)C)NC(=O)[C@H](CCCCN)NC(=O)[C@@H](NC(=O)[C@](C)(CCCC=C)NC(=O)[C@H](CCCNC(=N)N)NC(=O)[C@H](Cc1ccc(O)cc1)NC(=O)[C@@H](NC(=O)[C@H](CCCNC(=N)N)NC(=O)[C@H](CC(N)=O)NC(=O)[C@H](C)NC(=O)[C@H](Cc1cnc[nH]1)NC(=O)[C@@H](NC(=O)[C@H](CCC(N)=O)NC(=O)[C@@H]1CCCN1C(=O)[C@H](CC(=O)O)NC(C)=O)[C@@H](C)O)[C@@H](C)CC)[C@@H](C)CC)C(=O)N[C@@H](CC(C)C)C(=O)NCC(N)=O` (Ac-DPQTHANRIYR[S5]IKL[S5]LG-NH2) as the compound, how does the CC50 [3] read?
A: 19.1 µM

Q: And the solubility [4]?
A: ≥ 100 µM

Q: For `CC[C@H](C)[C@H](NC(=O)[C@H](CCCNC(=N)N)NC(=O)[C@H](CC(N)=O)NC(=O)[C@H](C)NC(=O)[C@H](Cc1cnc[nH]1)NC(=O)[C@@H](NC(=O)[C@H](CCC(N)=O)NC(=O)[C@@H]1CCCN1C(=O)[C@H](CC(=O)O)NC(C)=O)[C@@H](C)O)C(=O)N[C@@H](Cc1ccc(O)cc1)C(=O)N[C@@H](CCCNC(=N)N)C(=O)N[C@@]1(C)CCC/C=C/CCC[C@@](C)(C(=O)N[C@@H](CC(C)C)C(=O)NCC(N)=O)NC(=O)[C@H](CC(C)C)NC(=O)[C@H](CCCCN)NC(=O)[C@H]([C@@H](C)CC)NC1=O` (Ac-DPQTHANRIYR[S5]IKL[S5]LG-NH2; staple (E) 12-16), which IC50 [5] is on record?
A: 37.9 µM

Q: And the IC50 [2]?
A: 18.8 µM

Q: And the CC50 [3]?
A: 26.6 µM

Q: And the solubility [4]?
A: ≥ 100 µM

Q: For Ac-FQAEIAQLMSLIINTFY-NH2, which inhibition [1] is on record?
A: inactive

Q: What does the source list for `CC[C@H](C)[C@H](NC(=O)[C@H](CCCNC(=N)N)NC(=O)[C@H](CC(N)=O)NC(=O)[C@H](C)NC(=O)[C@H](Cc1cnc[nH]1)NC(=O)[C@@H](NC(=O)[C@H](CCC(N)=O)NC(=O)[C@@H]1CCCN1C(=O)[C@H](CC(=O)O)NC(C)=O)[C@@H](C)O)C(=O)N[C@@H](Cc1ccc(O)cc1)C(=O)N[C@@H](CCCNC(=N)N)C(=O)N[C@@H](CCSC)C(=O)N[C@H](C(=O)N[C@H]1CCCCNC(=O)C[C@@H](C(=O)O)NC(=O)[C@H](CC(C)C)NC(=O)CNC(=O)[C@H](CC(C)C)NC1=O)[C@@H](C)CC` (Ac-DPQTHANRIYRMIKLGLD-OH; lactam 14-18)?
A: IC50 [5]: 37 µM; IC50 [2]: 121 µM; CC50 [3]: 97 µM; solubility [4]: ≥ 100 µM

Q: For `CO[C@@H]1[C@@H](OC(N)=O)[C@@H](O)[C@H](Oc2ccc3c(O)c(NC(=O)c4ccc(O)c(CC=C(C)C)c4)c(=O)oc3c2C)OC1(C)C` [NOVOBIOCIN], which inhibition [1] is on record?
A: Active

Q: What about the CC50 [3] of the same compound?
A: 690 µM

Q: With `CC[C@H](C)[C@H](NC(=O)[C@H](CCCNC(=N)N)NC(=O)[C@H](CC(N)=O)NC(=O)[C@H](C)NC(=O)[C@H](Cc1cnc[nH]1)NC(=O)[C@@H](NC(=O)[C@H](CCC(N)=O)NC(=O)[C@@H]1CCCN1C(=O)[C@H](CC(=O)O)NC(C)=O)[C@@H](C)O)C(=O)N[C@@H](Cc1ccc(O)cc1)C(=O)N[C@@H](CCCNC(=N)N)C(=O)N[C@H]1CCCCNC(=O)C[C@@H](C(=O)N[C@@H](CC(C)C)C(=O)NCC(N)=O)NC(=O)[C@H](CC(C)C)NC(=O)[C@H](CCCCN)NC(=O)[C@H]([C@@H](C)CC)NC1=O` (Ac-DPQTHANRIYRKIKLDLG-NH2; lactam 12-16) as the compound, how does the IC50 [5] read?
A: 137 µM

Q: And the IC50 [2]?
A: > 67 µM

Q: What about the CC50 [3] of the same compound?
A: > 67 µM

Q: What about the solubility [4] of the same compound?
A: ≥ 100 µM

Q: With `CO[C@H]1/C=C\C=C(/C)C(=O)NC2=CC(=O)C(NCCCCCCNC(=S)Nc3ccc(-c4c5ccc(=O)cc-5oc5cc(O)ccc45)c(C(=O)O)c3)=C(C[C@@H](C)C[C@H](OC)[C@H](O)[C@@H](C)/C=C(\C)[C@@H]1OC(N)=O)C2=O` as the compound, how does the Activity [6] read?
A: Active

Q: Which inhibition [1] does the source give for Ac-DPQTFANRIYRMIKLGLG-NH2 here?
A: Active

Q: With `CC[C@H](C)[C@H](NC(=O)[C@H](CCCNC(=N)N)NC(=O)[C@H](CC(N)=O)NC(=O)[C@H](C)NC(=O)[C@H](Cc1cnc[nH]1)NC(=O)[C@@H](NC(=O)[C@H](CCC(N)=O)NC(=O)[C@@H]1CCCN1C(=O)[C@H](CC(=O)O)NC(=O)c1ccc2c(c1)C(=O)OC21c2ccc(O)cc2Oc2cc(O)ccc21)[C@@H](C)O)C(=O)N[C@@H](Cc1c[nH]c2ccccc12)C(=O)N[C@@H](CCCNC(=N)N)C(=O)N[C@@H](CCSC)C(=O)N[C@H](C(=O)N[C@@H](CCCCN)C(=O)N[C@@H](CC(C)C)C(=O)N[C@@H](Cc1c[nH]c2ccccc12)C(=O)N[C@@H](CC(C)C)C(=O)N[C@@H](CC(=O)O)C(N)=O)[C@@H](C)CC` (5FAM-DPQTHANRIWRMIKLWLD-NH2) as the compound, how does the Activity [7] read?
A: inactive
